Results taken from the supplement of paper PMC10307832.

Compound: COC1=CC=C(C=C1)COC2=C(C=C(C=C2)CC3=CN=C(N=C3N)N)OC [GW-2580] + CC(=O)c1c(C)c2cnc(Nc3ccc(N4CCNCC4)cn3)nc2n(C2CCCC2)c1=O [Palbociclib] (partner 0.5 µM)
Assay: relative viability (nuclei count vs DMSO), 5 days (fraction); higher = more cells survive
Details: first compound 0.08 µM
How it was run: (§1)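 Nuclei were stained with Hoechst during a one-step fixation (final 0.05% Triton X-100, 1% formaldehyde, 1 ug/ml Hoechst) carried out 5 days after dosing, then counted on 4× images. The cells, lung cancer lines in 1536-well plates, had been dosed by pin tool the day after seeding with one drug alone or a fixed anchor-drug dose plus five library-drug doses (not always all listed) in √10 steps. Relative viability is the nuclei count in treated wells divided by that in vehicle wells, and each value is the median of duplicate plates.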

| Cell Line | relative viability |
| --- | --- |
| NCI-H2342 | 0.547 |
| NCI-H727 | 0.576 |
| NCI-H1650 | 0.395 |
| NCI-H1993 | 0.744 |
| SW 1573 | 0.439 |
| NCI-H838 | 0.228 |
| LCLC-103H | 0.51 |
| NCI-H520 | 0.228 |
| NCI-H2126 | 0.352 |
| EMC-BAC-2 | 0.536 |
| NCI-H2085 | 0.507 |
| HCC-366 | 0.388 |
| NCI-H1666 | 0.647 |
| LK-2 | 0.877 |
| NCI-H2087 | 0.196 |
| NCI-H1648 | 0.293 |

| Cell Line | relative viability |
| --- | --- |
| SK-MES-1 | 0.36 |
| H3255 | 0.308 |
| COR-L23 | 0.264 |
| COR-L 105 | 0.434 |
| LOU-NH91 | 0.516 |
| ChaGo-K-1 | 0.927 |
| NCI-H2170 | 0.408 |
| NCI-H2405 | 0.512 |
| HOP-62 | 0.584 |
| HCC-44 | 0.98 |
| NCI-H522 | 1.04 |
| LU99A | 0.476 |
| BEN | 0.491 |
| SW 900 | 0.593 |
| NCI-H441 | 0.228 |

Same assay, conditions: first compound 0.8 µM

| Cell Line | relative viability |
| --- | --- |
| NCI-H2342 | 0.543 |
| NCI-H727 | 0.625 |
| NCI-H1650 | 0.48 |
| NCI-H1993 | 0.748 |
| SW 1573 | 0.38 |
| NCI-H838 | 0.25 |
| LCLC-103H | 0.48 |
| NCI-H520 | 0.206 |
| NCI-H2126 | 0.365 |
| EMC-BAC-2 | 0.545 |
| NCI-H2085 | 0.467 |
| HCC-366 | 0.475 |
| NCI-H1666 | 0.65 |
| LK-2 | 0.853 |
| NCI-H2087 | 0.274 |
| SK-MES-1 | 0.322 |
| H3255 | 0.3 |
| COR-L23 | 0.328 |
| COR-L 105 | 0.398 |
| LOU-NH91 | 0.514 |
| ChaGo-K-1 | 0.943 |
| NCI-H2170 | 0.451 |
| NCI-H2405 | 0.546 |
| HOP-62 | 0.438 |
| HCC-44 | 1.02 |
| NCI-H522 | 1.06 |
| LU99A | 0.444 |
| BEN | 0.507 |
| SW 900 | 0.562 |
| NCI-H441 | 0.212 |

Same assay, conditions: first compound 2.53 µM

| Cell Line | relative viability |
| --- | --- |
| NCI-H2342 | 0.511 |
| NCI-H727 | 0.606 |
| NCI-H1650 | 0.354 |
| NCI-H1993 | 0.563 |
| SW 1573 | 0.397 |
| NCI-H838 | 0.2 |
| LCLC-103H | 0.459 |
| NCI-H520 | 0.228 |
| NCI-H2126 | 0.335 |
| NCI-H2085 | 0.462 |
| HCC-366 | 0.488 |
| NCI-H1666 | 0.649 |
| LK-2 | 0.426 |
| NCI-H2087 | 0.216 |
| NCI-H1648 | 0.274 |
| SK-MES-1 | 0.281 |
| H3255 | 0.317 |
| COR-L23 | 0.302 |
| COR-L 105 | 0.413 |
| LOU-NH91 | 0.505 |
| ChaGo-K-1 | 0.88 |
| NCI-H2170 | 0.386 |
| NCI-H2405 | 0.463 |
| HOP-62 | 0.481 |
| HCC-44 | 0.961 |
| NCI-H522 | 0.825 |
| LU99A | 0.356 |
| BEN | 0.471 |
| SW 900 | 0.593 |
| NCI-H441 | 0.206 |

Same assay, conditions: first compound 8 µM

| Cell Line | relative viability |
| --- | --- |
| NCI-H2342 | 0.53 |
| NCI-H727 | 0.54 |
| NCI-H1650 | 0.326 |
| NCI-H1993 | 0.647 |
| SW 1573 | 0.408 |
| NCI-H838 | 0.251 |
| LCLC-103H | 0.493 |
| NCI-H520 | 0.208 |
| NCI-H2126 | 0.356 |
| EMC-BAC-2 | 0.493 |
| NCI-H2085 | 0.438 |
| HCC-366 | 0.405 |
| NCI-H1666 | 0.64 |
| LK-2 | 0.614 |
| NCI-H2087 | 0.252 |
| NCI-H1648 | 0.239 |

| Cell Line | relative viability |
| --- | --- |
| SK-MES-1 | 0.318 |
| H3255 | 0.279 |
| COR-L23 | 0.288 |
| COR-L 105 | 0.39 |
| LOU-NH91 | 0.54 |
| ChaGo-K-1 | 0.895 |
| NCI-H2170 | 0.373 |
| NCI-H2405 | 0.49 |
| HOP-62 | 0.515 |
| HCC-44 | 0.967 |
| NCI-H522 | 1.04 |
| LU99A | 0.376 |
| BEN | 0.491 |
| SW 900 | 0.567 |
| NCI-H441 | 0.2 |

Compound: COC1=CC=C(C=C1)COC2=C(C=C(C=C2)CC3=CN=C(N=C3N)N)OC [GW-2580] + COc1cccc2cc(-c3nc([C@H]4CC[C@H](C(=O)O)CC4)n4ncnc(N)c34)[nH]c12 [OSI-027] (partner 0.5 µM)
Assay: as above
Details: first compound 0.08 µM
How it was run: as §1

| Cell Line | relative viability |
| --- | --- |
| NCI-H2342 | 0.574 |
| NCI-H1623 | 0.4 |
| NCI-H727 | 0.595 |
| NCI-H1650 | 0.738 |
| NCI-H1993 | 0.656 |
| SW 1573 | 0.809 |
| NCI-H838 | 0.413 |
| LCLC-103H | 0.482 |
| NCI-H520 | 0.276 |
| NCI-H2126 | 0.697 |
| EMC-BAC-2 | 0.364 |
| NCI-H2085 | 0.985 |
| HCC-366 | 0.944 |
| NCI-H1666 | 0.941 |
| NCI-H596 | 0.823 |
| LK-2 | 0.208 |

| Cell Line | relative viability |
| --- | --- |
| NCI-H2087 | 0.681 |
| NCI-H1648 | 0.27 |
| SK-MES-1 | 0.625 |
| H3255 | 0.577 |
| COR-L23 | 1.01 |
| COR-L 105 | 0.662 |
| LOU-NH91 | 0.706 |
| ChaGo-K-1 | 0.625 |
| NCI-H2170 | 0.757 |
| NCI-H2405 | 0.643 |
| HOP-62 | 0.905 |
| HCC-44 | 0.51 |
| NCI-H522 | 0.688 |
| LU99A | 0.294 |
| BEN | 0.281 |
| SW 900 | 0.69 |
